We go through 8 molecules from US10251396B2, “Amide compound and use of same for noxious arthropod control” (SUMITOMO CHEMICAL COMPANY, LIMITED, priority 2014, dated 2019).

Type in all cases: in vivo
In one test the test system is Blattella germanica. Nature of the test: Test Example 1: spray knockdown test on Blattella germanica. The settings on record: 0.25 h; 2.0% w/v in isopropyl alcohol/kerosine=1/9, 1.5 mL sprayed, ten Blattella germanica, within 15 minutes; read-out: knockdown ratio of test vermin within 15 minutes. On the procedure:
A formulation containing each of the compounds (1), (3), (4), (5), (8), (11), (12) and (21) prepared in accordance with Formulation Example 7 was diluted with an isopropyl alcohol/kerosine=1/9 mixed liquid so that the concentration of each compound became 2.0% w/v, to obtain a diluted solution. Ten vermin Blattella germanica (male female each five vermin) were allowed to release in a container for a test in which a butter was applied on an inner wall (diameter 8.75 cm, height 7.5 cm, bottom face covered with 16 mesh wire net), and the container was arranged on a bottom of a chamber for a test (bottom surface: 46 cm×46 cm, height: 70 cm). From a height of 60 cm from an upper surface of the container, 1.5 mL of the diluted solution was sprayed using a spray gun (spraying pressure 0.42 kg/cm^2). Thirty seconds after spraying, the container was taken out from the chamber for a test, the number of vermin which had been knocked down was counted for 15 minutes with time, and a knockdown ratio was obtained. The knockdown ratio was calculated by the following expression. Knockdown ratio (%)=(number of knocked down vermin/number of test vermin)×100 As a result, the knockdown ratio of test vermin within 15 minutes was 80% or more, in treatment with the compounds (1), (3), (4), (5), (8), (11), (12) and (21), respectively.

The next test deals with Aphis gossypii. Nature of the test: Test Example 5: foliar spray test on Aphis gossypii on cucumber. Conditions: 500 ppm diluted solution, 20 mL/cup sprayed to cucumber, six days after spraying. The protocol: A formulation containing the compound (4) prepared in accordance with Formulation Example 15 was diluted with water so that the concentration became 500 ppm to obtain a diluted solution. On the other hand, a cucumber was planted in a polyethylene cup, and grown until a first true leaf developed. About 20 vermin of Aphis gossypii was parasitized therein. After one day, the diluted solution was sprayed to the cucumber at a ratio of 20 mL/cup. Six days after spraying, the number of live or dead vermin of Aphis gossypii was investigated, and a controlling value was obtained by the following expression. Controlling value (%)={1−(Cb×Tai)/(Cai×Tb)}×100 In addition, letters in the expression indicate the following meanings.

Another test has as its system Plutella xylostella. Kind of test: Test Example 6: cabbage foliar spray test on second instar larvae of Plutella xylostella. The settings on record: 500 ppm diluted solution, 20 mL/cup sprayed to cabbage, 25° C., after 5 days. The protocol:
A formulation containing the compound (21) prepared in accordance with Formulation Example 15 was diluted with water so that the concentration became 500 ppm, to prepare a diluted solution. On the other hand, the diluted solution was sprayed to a cabbage at a stage of three leaves planted in a polyethylene cup at a ratio of 20 mL/cup. After spraying, the plant was air-dried, foliage portions were cut and accommodated into a 50 mL cup, 5 second instar larvae of Plutella xylostella were released, and the cup was covered. This was stored at 25° C., and after 5 days, the number of dead vermin was counted, and a dead vermin ratio was obtained by the following expression.

Molecules are shown by their SMILES.

For the molecule `COC(CNC(=O)c1cc(COCc2ccccc2)on1)OC` [compound (11)], the pest or weed control at 2 % strength with Blattella germanica is no less than 80%. As to `COC(C)CNC(=O)c1cc(COCc2ccccc2)on1` (stereo not shown) [compound (4)], the pest or weed control at 2 % strength in the test with Blattella germanica is no less than 80%. Besides, the controlling value in the test with Aphis gossypii is on record as no less than 90%. For the molecule `COC(C)CNC(=O)c1cc(COCc2ccc3ccccc3c2)on1` (stereo not shown) [compound (21)], in the test with Blattella germanica, the pest or weed control at 2 % strength was no less than 80%. The dead vermin ratio with Plutella xylostella is no less than 80%.

For the molecule `COCCNC(=O)c1cc(COCc2ccccc2)on1` [compound (5)], the pest or weed control at 2 % strength in the test with Blattella germanica is no less than 80%. For `CC(C)CNC(=O)c1cc(COCc2ccccc2)on1` [compound (1)], in the test with Blattella germanica, the pest or weed control at 2 % strength was no less than 80%. Regarding `C=C(C)CNC(=O)c1cc(COCc2ccccc2)on1` [compound (3)], the pest or weed control at 2 % strength with Blattella germanica is no less than 80%.

For `COCC(COC)NC(=O)c1cc(COCc2ccccc2)on1` [compound (12)], the pest or weed control at 2 % strength with Blattella germanica is no less than 80%. On the same count and under the same terms, the figure for `COC(C)(C)CNC(=O)c1cc(COCc2ccccc2)on1` [compound (8)] is no less than 80%.
